According to patent US11524960B2, “Heterobicyclic inhibitors of MAT2A and methods of use for treating cancer” (AGIOS PHARMACEUTICALS, INC., priority 2018, dated 2022):
pIC50: −log10 of the molar value. Where two headings read alike, the source gives them in different places.

Legend:
[1] = molecular target: T1, MAT2A homodimer (Homo sapiens, UniProt P31153); assay: Biochemical assay: inhibition of MAT2A (phosphate release, PiColorLock Gold); conditions: MAT2A IC50 score; read-out: Enzyme Inhibition (Example 275)
T1 construct: inferred from Ni sepharose purification and imidazole elution; made in house; host or cells: Sf9 insect cells, recombinant baculovirus (Bac to Bac, pFASTBAC1)
T1 sequence (P31153 whole entry): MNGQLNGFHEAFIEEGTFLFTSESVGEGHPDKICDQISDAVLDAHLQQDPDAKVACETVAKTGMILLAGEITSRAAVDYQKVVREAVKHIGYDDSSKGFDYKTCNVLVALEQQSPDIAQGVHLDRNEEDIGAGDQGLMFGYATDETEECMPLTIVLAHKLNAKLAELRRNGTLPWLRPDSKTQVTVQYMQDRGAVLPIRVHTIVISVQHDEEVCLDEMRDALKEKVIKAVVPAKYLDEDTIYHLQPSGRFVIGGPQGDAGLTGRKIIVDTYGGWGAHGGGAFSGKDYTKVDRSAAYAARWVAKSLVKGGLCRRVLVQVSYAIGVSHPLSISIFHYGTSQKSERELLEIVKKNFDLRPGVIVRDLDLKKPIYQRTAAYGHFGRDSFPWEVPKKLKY
In short: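 Baculovirus/Sf9-expressed, Ni-purified MAT2A at 4 µg/mL was preincubated with compound for 60 min at 25 °C in 50 mM Tris pH 8.0, 50 mM KCl, 15 mM MgCl2, 0.3 mM EDTA, 0.005% BSA. Substrate mix (500 μM ATP, 400 μM L-methionine) was added and the reaction ran 60 min at 25 °C. Phosphate released stoichiometrically with SAM was measured colorimetrically against a phosphate standard curve.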

[2] = tested on: SAM in HCT116 human colon carcinoma cell line engineered to delete the MTAP gene (MTAP −/−); assay: Cellular assay of target engagement (SAM) by LC-MS/MS; type: cell-based; conditions: IC50 score, read-out: Cell 72 h SAM Inhibition (MTAP −/−; Example 276)
In short: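 MTAP-deleted HCT116 cells were dosed 24 h after plating with a 10-point 3-fold compound series in DMSO, then incubated 72 h at 37 °C/5% CO2. Cells were extracted in cold 80% methanol with acetic acid and d3-SAM internal standard. SAM was quantified by LC-MS/MS MRM (m/z 399.2→250.1).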

[3] = tested on: HCT116 MTAP−/−; assay: Inhibition of cellular proliferation (Cell Titer Glo), HCT116 MTAP−/−; type: cell-based, human; conditions: 4 days, IC50 score, read-out: 4 Day Relative Growth Inhibition (MTAP −/−; Example 277)
In short: (§1)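 Isogenic HCT116 lines, MTAP+/+ and MTAP−/−, treated 24 h after plating with 10-point 3-fold compound dilutions including DMSO only, then grown 4 days at 37 °C/5% CO2. Cell Titer Glo ATP luminescence, blank-subtracted and normalised to 0.2% DMSO control, gave percent change in proliferation versus log concentration.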

[4] = tested on: HCT116 MTAP+/+; assay: Inhibition of cellular proliferation (Cell Titer Glo), HCT116 MTAP+/+; type: cell-based, human; conditions: 4 days, IC50 score, read-out: 4 Day Relative Growth Inhibition (MTAP +/+; Example 277)
In short: as §1

| Structure (SMILES) | pIC50 [1] | pIC50 ([2]; Homo sapiens, HCT-116, 72 h) | pIC50 ([3]; Homo sapiens, HCT-116, 96 h) | pIC50 ([4]; Homo sapiens, HCT-116, 96 h) | pIC50 ([2]; 72 h) | pIC50 [3] | pIC50 [4] |
| --- | --- | --- | --- | --- | --- | --- | --- |
| Cn1cc2cc(-n3cc4ccc(OCC(F)F)nc4c(-c4ccc(OC(F)F)nc4)c3=O)ccc2n1 [Example 123-A] | > 7.00 | > 7.00 | > 7.00 | 5.00 to 7.00 |  |  |  |
| CCNc1ncc2cn(-c3ccc(OC)cc3)c(=O)c(-c3ccc(Br)cc3)c2n1 [Example 188, 8-(4-bromophenyl)-2-(ethylamino)-6-(4-methoxyphenyl)pyrido[4,3-d]pyrimidin-7(6H)-one] | > 7.00 | > 7.00 | 5.00 to 7.00 | < 5.00 |  |  |  |
| Cn1cc2cc(-n3cc4ncc(OCC(F)F)nc4c(-c4ccc(Cl)cc4)c3=O)ccc2n1 [Example 146-A] | > 7.00 | > 7.00 | > 7.00 | 5.00 to 7.00 |  |  |  |
| O=c1c(-c2ccc(OC(F)F)cc2)c2nc(NC3CC3)ncc2cn1-c1ccc2ncccc2c1 [Example 179, 2-(cyclopropylamino)-8-(4-(difluoromethoxy)phenyl)-6-(quinolin-6-yl)pyrido[4,3-d]pyrimidin-7(6)-one] | > 7.00 | 6.00 to 7.00 | 5.00 to 7.00 | < 5.00 |  |  |  |
| O=c1c(-c2ccc(Cl)cc2)c2nc(NCC(F)(F)F)ncc2cn1-c1ccc2ncsc2c1 [Example 129, 6-(benzo[d]thiazol-6-yl)-8-(4-chlorophenyl)-2-(2,2,2-trifluoroethylamino)pyrido[4,3-d]pyrimidin-7(6H)-one] | > 7.00 | 6.00 to 7.00 | 5.00 to 7.00 | < 5.00 |  |  |  |
| Cn1cc2cc(-n3cc4cnc(NCC(F)(F)F)nc4c(-c4ccc(OC(F)F)cc4)c3=O)ccc2n1 [Example 148, 8-(4-(difluoromethoxy)phenyl)-6-(2-methyl-2H-indazol-5-yl)-2-((2,2,2-trifluoroethyl)amino)pyrido[4,3-d]pyrimidin-7(6H)-one] | > 7.00 | > 7.00 | > 7.00 | 5.00 to 7.00 |  |  |  |
| Cc1ccc(-c2c(=O)n(-c3ccc4nn(C)cc4c3)cc3ccc(OCC(F)(F)F)nc23)cn1 [Example 130-A] | > 7.00 | > 7.00 | > 7.00 | 5.00 to 7.00 |  |  |  |
| CC(C)(O)Cn1cc2cc(-n3cc4cnc(NCC(F)(F)F)nc4c(-c4ccc(Cl)cc4)c3=O)ccc2n1 [Example 101-A] | > 7.00 | > 7.00 | > 7.00 | < 5.00 |  |  |  |
| O=c1c(-c2ccc(Br)cc2)c2nc(NCC(F)(F)F)ncc2cn1-c1ccc2ncccc2c1 [Example 180, 8-(4-bromophenyl)-6-(quinolin-6-yl)-2-((2,2,2-trifluoroethyl)amino)pyrido[4,3-d]pyrimidin-7(6H)-one] | > 7.00 | > 7.00 | > 7.00 | < 5.00 |  |  |  |
| Cn1cnc2ccc(-n3cc4ccc(OCC(F)(F)F)nc4c(-c4ccc(OC(F)F)nc4)c3=O)cc21 [Example 127-A] | > 7.00 | 6.00 to 7.00 | > 7.00 | 5.00 to 7.00 |  |  |  |
| Cn1cnc2ccc(-n3cc4ccc(NCC(F)(F)F)nc4c(-c4ccc(Cl)cc4)c3=O)cc21 [Example 234, 8-(4-chlorophenyl)-6-(1-methyl-1H-benzo[d]imidazol-6-yl)-2-(2,2,2-trifluoroethylamino)-1,6-naphthyridin-7(6H)-one] | > 7.00 | > 7.00 | > 7.00 | < 5.00 |  |  |  |
| Cn1cnc2ccc(-n3cc4cnc(NCC(F)(F)F)nc4c(-c4ccc(OC(F)F)cc4)c3=O)cc21 [Example 151, 8-(4-(difluoromethoxy)phenyl)-6-(1-methyl-1H-benzo[d]imidazol-6-yl)-2-((2,2,2-trifluoroethyl)amino)pyrido[4,3-d]pyrimidin-7(6H)-one] | > 7.00 | > 7.00 | > 7.00 | 5.00 to 7.00 |  |  |  |
| CCOc1ccc2cn(-c3ccc(=O)n(CCS(C)(=O)=O)c3)c(=O)c(-c3ccc(OC(F)F)cc3)c2n1 [Example 107-A] | > 7.00 |  |  |  | > 7.00 | > 7.00 | 5.00 to 7.00 |
| CCOc1ccc2cn(-c3ccc4nn(C)cc4c3)c(=O)c(-c3ccc(C(F)(F)F)nc3)c2n1 [Example 220, 2-ethoxy-6-(2-methyl-2H-indazol-5-yl)-8-(6-(trifluoromethyl)pyridin-3-yl)-1,6-naphthyridin-7(6H)-one] | > 7.00 | > 7.00 | > 7.00 | 5.00 to 7.00 |  |  |  |
| Cn1cc2cc(-n3cc4cnc(NCC(F)F)nc4c(-c4ccc(Cl)cc4)c3=O)ccc2n1 [Example 102-A] | > 7.00 | > 7.00 | > 7.00 | 5.00 to 7.00 |  |  |  |
| COc1ccc(-c2c(=O)n(-c3ccc4c(c3)OCCO4)cc3cnc(NCC(F)(F)F)nc23)cc1 [Example 177, 6-(2,3-dihydrobenzo[b][1,4]dioxin-6-yl)-8-(4-methoxyphenyl)-2-((2,2,2-trifluoroethyl)amino)pyrido[4,3-d]pyrimidin-7(6H)-one] | > 7.00 | > 7.00 | 5.00 to 7.00 | < 5.00 |  |  |  |
| Cn1cc2cc(-n3cc4ccc(OCC(F)(F)F)nc4c(-c4ccc(Cl)cc4)c3=O)ccc2n1 [Example 254, 8-(4-chlorophenyl)-6-(2-methyl-2H-indazol-5-yl)-2-(2,2,2-trifluoroethoxy)-1,6-naphthyridin-7(6H)-one] | > 7.00 | > 7.00 | > 7.00 | < 5.00 |  |  |  |
| O=c1c(-c2ccc(Cl)cc2)c2nc(NCC(F)(F)F)ncc2cn1-c1ccc2ncccc2c1 [Example 139, 8-(4-chlorophenyl)-6-(quinolin-6-yl)-2-((2,2,2-trifluoroethyl)amino)pyrido[4,3-d]pyrimidin-7(6)-one] | > 7.00 | > 7.00 | 5.00 to 7.00 | < 5.00 |  |  |  |
| CCOc1ccc2cn(-c3ccc4ncn(C)c4c3)c(=O)c(-c3ccc(C)nc3)c2n1 [Example 132-A] | > 7.00 | > 7.00 | > 7.00 | 5.00 to 7.00 |  |  |  |
| CCOc1ccc2cn(-c3ccc4nnccc4c3)c(=O)c(-c3ccc(Cl)cc3)c2n1 [Example 245, 8-(4-chlorophenyl)-6-(cinnolin-6-yl)-2-ethoxy-1,6-naphthyridin-7(6H)-one] | > 7.00 | > 7.00 | 5.00 to 7.00 | < 5.00 |  |  |  |
| CCOc1ccc2cn(-c3ccc4nn(C)cc4c3)c(=O)c(-c3ccc(-c4c[nH]cn4)cc3)c2n1 [Example 224, 8-(4-(1H-imidazol-4-yl)phenyl)-2-ethoxy-6-(2-methyl-2H-indazol-5-yl)-1,6-naphthyridin-7(6H)-one] | > 7.00 | 6.00 to 7.00 | < 5.00 | < 5.00 |  |  |  |
| CCOc1ccc2cn(-c3ccc4nn(CCS(C)(=O)=O)cc4c3)c(=O)c(-c3ccc(Cl)cc3)c2n1 [Example 225, 8-(4-chlorophenyl)-2-ethoxy-6-(2-(2-(methylsulfonyl)ethyl)-2H-indazol-5-yl)-1,6-naphthyridin-7(6H)-one] | 6.00 to 7.00 | > 7.00 | 5.00 to 7.00 | 5.00 to 7.00 |  |  |  |
| Cn1cc2cc(-n3cc4ccc(NCC(F)(F)F)nc4c(-c4ccc(C5CC5)nc4)c3=O)ccc2n1 [Example 212, 8-(6-cyclopropylpyridin-3-yl)-6-(2-methyl-2H-indazol-5-yl)-2-((2,2,2-trifluoroethyl)amino)-1,6-naphthyridin-7(6H)-one] | > 7.00 | > 7.00 | > 7.00 | < 5.00 |  |  |  |
